For orientation: IC50 means the point on the concentration scale where inhibition reaches its midpoint. Low values mean greater potency, high ones weaker potency.

Holding throughout (assay type): cell-based
The target in one assay is T1, KCNJ5^G151R (Homo sapiens, UniProt P48544, G151R).
T1 construct: expressed in transfected cells
T1 sequence (P48544 1-419 G151R): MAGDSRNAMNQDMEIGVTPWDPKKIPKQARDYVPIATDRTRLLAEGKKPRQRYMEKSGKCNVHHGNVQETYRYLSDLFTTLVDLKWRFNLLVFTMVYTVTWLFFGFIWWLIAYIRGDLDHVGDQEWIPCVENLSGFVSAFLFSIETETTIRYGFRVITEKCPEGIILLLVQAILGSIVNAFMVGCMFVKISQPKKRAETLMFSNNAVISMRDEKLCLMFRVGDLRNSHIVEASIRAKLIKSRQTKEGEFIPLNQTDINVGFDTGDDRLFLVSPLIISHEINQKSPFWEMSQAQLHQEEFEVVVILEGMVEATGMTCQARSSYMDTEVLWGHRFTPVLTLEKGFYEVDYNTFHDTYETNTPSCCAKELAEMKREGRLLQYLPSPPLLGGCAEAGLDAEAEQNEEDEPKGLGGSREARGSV
As to the kind of experiment: cell-based. To be noted: for inhibition of KCNJ5^G151R by synthesized macrolide derivatives: tested as in FIG. 7 (FIGS. 9 and 10). The procedure, abridged:
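Viability is read as cellular ATP by CellTiter-Glo luminescence 72 h later at 37 °C. Uninduced and induced untreated cells set 100% and 0% effect; curves use a 4-parameter logistic fit.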

Another assay deals with T2, KCNJ5^L168R (Homo sapiens, UniProt P48544, L168R).
T2 construct: expressed in transfected cells
T2 sequence (P48544 1-419 L168R): T1 sequence (P48544 1-419 G151R) with R151G, L168R
Kind of assay: Cell viability assay (ATP, CellTiter-Glo): rescue of KCNJ5^L168R-induced lethality in inducible HEK293 cells. To be noted: for L168R IC50 / IC50 / L168R maximum inhibition / L168R minimum inhibition: 10-point dilution 20 to 0.0391 μM, N=3, four-parameter fit; for inhibition of KCNJ5^L168R by synthesized macrolide derivatives: tested as in FIG. 7 (FIGS. 9 and 10). As to the method: WT or mutant human KCNJ5 cDNAs (Choi et al., 2011, Science 331:768-772) were subcloned into the pcDNA5/FRT/TO vector using BamHI and HindIII. Single copies of WT or mutant human KCNJ5 cDNAs expressed under the control of tetracycline-inducible promoter were introduced into HEK293 cells using the Flp-in T-Rex System (Invitrogen) according to the manufacturer's instructions. Cells were grown in selective media containing 10% Tet-system approved FBS (Clontech) until induction.
Assay plates were centrifuged and incubated overnight at 37° C. 20 nL was transferred from the compound source plate to the cell assay plate using an Aquarius (Tecan) with a 384-well pin tool (V&P Scientific). The final concentration of compound for screening was 10 μM and the final DMSO concentration was 0.1%. 1 μL of tetracycline (final concentration 1 μg/mL) was added to compound containing and negative control wells by Multidrop Combi to induce expression. 1 μL of media was added to positive control wells. Assay plates were centrifuged and incubated for 72 hours at 37° C., 5% CO2. CellTiter-Glo (Promega) was used to measure cell viability in the assay wells according to the manufacturer's instructions. 10 μL/well of CellTiter-Glo reagent was added to the assay plates using a MultiDrop Combi. The plates were shaken on a Thermomixer R (Eppendorf) at 1100 rpm for 1 minute and incubated in the dark for 10 minutes at room temperature. Luminescence was read on an Envision plate reader (PerkinElmer) with 0.3 second sampling time per well. Raw data (luminescence counts per second) was normalized to percent effect by the formula 100−(((sample−negative control mean)/(positive control mean−negative control mean))*100).
Data was analyzed using the programs Excel (Microsoft) and Prism (GraphPad). Errors are SD unless otherwise indicated in the legend. Dose-response curves were fitted with a four-parameter logistic equation: F(x)=D+(A−D)/(1+(x/C)^B), with A=minimum inhibition B=Hill's slope C=inflection point D=maximum inhibition Synthesis of Macrolide Derivatives
Cellular ATP levels were measured as a proxy for cell viability, using a commercially available luciferase assay (Crouch et al., 1993, Proc. Natl. Acad. Sci. U.S.A. 109:2533-2538).
Conditions were designed to maximize reproducibility and the signal-to-background ratios (S/B) (Zhang et al., 1999, J. Biomol. Screen 4:67-73) comparing ATP level in uninduced and induced cells. Screening was performed in 384-well plates; compounds were added 24 hours after plating, and channel expression was induced immediately after compound addition. ATP levels were measured 72 hours after induction.

The target of the next assay is T3, KCNJ5^WT (Homo sapiens, UniProt P48544).
T3 construct: expressed in transfected cells
T3 sequence (P48544 1-419): T1 sequence (P48544 1-419 G151R) with R151G
Kind of assay: Membrane potential assay (FLIPR dye) in inducible KCNJ5^WT HEK293 cells. To be noted: for WT IC50: 10-point dilution 20 to 0.0391 μM, N=3, four-parameter fit; for inhibition of KCNJ5^WT by synthesized macrolide derivatives: tested as in FIG. 7 (FIGS. 9 and 10). As to the method:
Single copies of WT or mutant human KCNJ5 cDNAs expressed under the control of tetracycline-inducible promoter were introduced into HEK293 cells using the Flp-in T-Rex System (Invitrogen) according to the manufacturer's instructions. Cells were grown in selective media containing 10% Tet-system approved FBS (Clontech) until induction.
20 μL of WT cells were plated into sterile black with clear bottom tissue culture-treated 384-well plates (Corning) at a density of 10000 cells/well using a Multidrop Combi. Assay plates were centrifuged at 500 rpm for 10 seconds and incubated overnight at 37° C. in a humidified 5% CO2 incubator. After the overnight incubation, 1 μL of tetracycline (final conc. 1 μg/mL) was added to all wells by Multidrop Combi to induce KCNJ5. Assay plates were centrifuged at 500 rpm for 10 seconds and incubated overnight at 37° C. in a humidified 5% CO2 incubator. The next day, 10 μL of medium was removed from each well using a PlateMate Plus (Thermo Scientific). 10 μL of Blue Formula FLIPR membrane potential dye (Molecular Devices) was added to cells using a Multichannel pipettor. Assay plates were incubated for 30 minutes. at 37° C. After incubation, 20 nL was transferred twice from the compound source plate to the cell assay plate using an Aquarius with a 384-well pin tool for a total transfer volume of 40 nL and a final DMSO concentration of 0.2%. 1 μL of 20 mM BaCl2 was added to positive control wells using a Multichannel pipettor. The assay plate was incubated 20 minutes at room temperature in the dark.
Changes in membrane potential were detected using a well-established fluorescence-based measure of membrane potential (FIG. 4).

Where [1] appears, read: 10-point dilution 20 to 0.0391 μM, N=3, four-parameter fit.

Substitutions are numbered along the chain they refer to.

Take `CC[C@H]1OC(=O)[C@H](C)[C@@H](O[C@H]2C[C@@](C)(OC)[C@@H](O)[C@H](C)O2)[C@H](C)[C@@H](O[C@@H]2O[C@H](C)C[C@H](N(C)C)[C@H]2O)[C@](C)(O)C[C@](C)(F)C(=O)[C@H](C)[C@@H](O)[C@]1(C)O` [Flurithromycin, flurithromycin]: the “G151R IC50” value at KCNJ5^G151R (setting [1]) is “No fit”. Also, the “inhibition of KCNJ5^MUT (structure-activity statement)” value against KCNJ5^G151R (macrolide series, dilution curves) was “negligible activity”. The “L168R IC50” value at KCNJ5^L168R is recorded as “No fit”. Also, at KCNJ5^WT, the “WT IC50” value was “No fit”.

At KCNJ5^G151R (setting [1]), `CC[C@H]1OC(=O)[C@H](C)[C@@H](O[C@H]2C[C@@](C)(OC)[C@@H](O)[C@H](C)O2)[C@H](C)[C@@H](O[C@@H]2O[C@H](C)C[C@H](N(C)C(C)C)[C@H]2O)[C@@]2(C)CC(C)=C(O2)[C@H](C)[C@@H](O)[C@]1(C)O` [Idremcinal, idremcinal] yielded a G151R maximum inhibition of 93.39%, a G151R minimum inhibition of 6.38% and an IC50 of 0.6 µM. Also, at KCNJ5^L168R, it took 1.99 µM to reach half-maximal inhibition (IC50), the L168R maximum inhibition worked out at 66.69% and the L168R minimum inhibition is on record as −1.28%. Also, on KCNJ5^WT, the “WT IC50” value was “No fit”. Further, the “WT IC50” value on KCNJ5^WT (listed as idremcinal) was “no dose response”.

At KCNJ5^G151R (setting [1]), `CC[C@H]1OC(=O)[C@H](C)[C@@H](O[C@H]2C[C@@](C)(OC)[C@@H](O)[C@H](C)O2)[C@H](C)[C@@H](O[C@@H]2O[C@H](C)C[C@H](NC)[C@H]2O)[C@](C)(O)C[C@@H](C)/C(=N\OCOCCOC)[C@H](C)[C@@H](O)[C@]1(C)O` [N-demethyl Roxithromycin, N-demethyl roxithromycin] registered a G151R maximum inhibition of 96.20%, a G151R minimum inhibition of 4.50% and an IC50 of 0.82 µM. At KCNJ5^L168R, the IC50 was 1.18 µM, the L168R maximum inhibition is on record as 76.95% and the L168R minimum inhibition came to 1.12%. Moreover, the “dose response on KCNJ5^L168R” value at KCNJ5^L168R (tested at 1.1, 3.3 and 10 μM) is reported as “showed a dose response”. Besides, on KCNJ5^WT, the “WT IC50” value was “No fit”.

Consider `CCCCN(C)[C@H]1C[C@@H](C)O[C@@H](O[C@@H]2[C@@H](C)[C@H](O[C@H]3C[C@@](C)(OC)[C@@H](O)[C@H](C)O3)[C@@H](C)C(=O)O[C@H](CC)[C@@](C)(O)[C@H](O)[C@@H](C)[C@@H](O)[C@H](C)C[C@@]2(C)O)[C@@H]1O` [PLUX33, N-demethyl-9-deoxo-9-hydroxy-N-butyl-(9S)-erythromycin], for which, at KCNJ5^G151R, the “inhibition of KCNJ5^G151R by synthesized macrolide derivatives” value was “significant inhibition”. For the same compound, the “inhibition of KCNJ5^L168R by synthesized macrolide derivatives” value against KCNJ5^L168R is recorded as “significant inhibition”. The “inhibition of KCNJ5^WT by synthesized macrolide derivatives” value on KCNJ5^WT is listed as “no inhibition”.

Turning to `CC[C@@H](O)[C@@](C)(O)[C@@H]1OC(=O)[C@H](C)[C@@H](O[C@H]2C[C@@](C)(OC)[C@@H](O)[C@H](C)O2)[C@H](C)[C@@H](O[C@@H]2O[C@H](C)C[C@H](N(C)C)[C@H]2O)[C@@]2(C)CC(C)=C(O2)[C@@H]1C` [Pseudo Erythromycin A Enol Ether, pseudo erythromycin A enol ether], at KCNJ5^G151R (setting [1]), the G151R maximum inhibition is listed as 11.13%, the G151R minimum inhibition was 1.58% and 0.65 µM corresponded to half-maximal inhibition (IC50). Also, the “L168R IC50” value at KCNJ5^L168R is on record as “No Fit”. Moreover, the “WT IC50” value on KCNJ5^WT is listed as “No fit”.

As for “N-demethyl-8,9-anhydroerythromycin A 6,9-hemiacetal [PLUX36]”, the “inhibition of KCNJ5^G151R by synthesized macrolide derivatives” value at KCNJ5^G151R is recorded as “significant inhibition”. At KCNJ5^L168R, the “inhibition of KCNJ5^L168R by synthesized macrolide derivatives” value is listed as “significant inhibition”. For the same compound, on KCNJ5^WT, the “inhibition of KCNJ5^WT by synthesized macrolide derivatives” value was “no inhibition”.

These data come from patent publication US11484543B2, “Compositions and methods for diagnosing and treating diseases and disorders associated with mutant KCNJ5” (The Rockefeller University, priority 2017, dated 2022).
